In ChEMBL document CHEMBL1201862, “PubChem BioAssay data set” (2004):
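Protocol summary: plate cells (96-well), add compound at 5 concentrations, incubate 48 h, interpolate endpoints linearly. At the GI50, growth is halved.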 Active and inactive are the calls of the source. Cut-off read from the data, not from the text of the source: active = GI50 up to about 1.1 µM and inactive = higher.

Experiments:
Assay in all cases: NCI-60 cell line screen, 48 h
[1] = test system: MDA-N
[2] = test system: MCF7
[3] = test system: RXF 393
[4] = test system: RPMI-8226
[5] = test system: DU-145
[6] = test system: SF-268
[7] = test system: OVCAR-8
[8] = test system: PC-3
[9] = test system: OVCAR-3
[10] = test system: HT-29
[11] = test system: SF-295
[12] = test system: MDA-MB-231
[13] = test system: COLO 205
[14] = test system: K562
[15] = test system: TK-10
[16] = test system: NCI/ADR-RES
[17] = test system: HOP-62
[18] = test system: HCC 2998
[19] = test system: Hs-578T
[20] = test system: CAKI-1

## CCOC1OCCCC1Br (stereo not given)
[1]
  GI50: > 100 µM (inactive)
[2]
  GI50: > 100 µM (inactive)
[3]
  GI50: > 100 µM (inactive)
[4]
  GI50: > 100 µM (inactive)
[5]
  GI50: > 100 µM (inactive)
[6]
  GI50: > 100 µM (inactive)
[7]
  GI50: > 100 µM (inactive)
[8]
  GI50: > 100 µM (inactive)
[9]
  GI50: > 100 µM (inactive)
[10]
  GI50: > 100 µM (inactive)
[11]
  GI50: > 100 µM (inactive)
[12]
  GI50: > 100 µM (inactive)
[13]
  GI50: > 100 µM (inactive)
[14]
  GI50: > 100 µM (inactive)
[15]
  GI50: > 100 µM (inactive)
[16]
  GI50: > 100 µM (inactive)
[17]
  GI50: > 100 µM (inactive)
[18]
  GI50: > 100 µM (inactive)
[19]
  GI50: > 100 µM (inactive)
[20]
  GI50: > 100 µM (inactive)

## CC(=O)OCC1OC(OCCCOP(=S)(OCCC#N)OCC2OC(n3ccc(N)nc3=O)C(OC(=O)c3ccccc3)C2OC(=O)c2ccccc2)C(OC(C)=O)C(OC(C)=O)C1OC(C)=O (stereo not given)
[1]
  GI50: > 100 µM (inactive)
[2]
  GI50: 46.6 µM (inactive)
[3]
  GI50: > 100 µM (inactive)
[4]
  GI50: > 100 µM (inactive)
[5]
  GI50: > 100 µM (inactive)
[6]
  GI50: > 100 µM (inactive)
[7]
  GI50: > 100 µM (inactive)
[8]
  GI50: > 100 µM (inactive)
[9]
  GI50: > 100 µM (inactive)
[10]
  GI50: > 100 µM (inactive)
[11]
  GI50: > 100 µM (inactive)
[12]
  GI50: > 100 µM (inactive)
[13]
  GI50: > 100 µM (inactive)
[14]
  GI50: > 100 µM (inactive)
[15]
  GI50: > 100 µM (inactive)
[16]
  GI50: > 100 µM (inactive)
[17]
  GI50: 43.5 µM (inactive)
[18]
  GI50: > 100 µM (inactive)
[19]
  GI50: > 100 µM (inactive)
[20]
  GI50: > 100 µM (inactive)

## CC1(C)N=c2[nH]cnc2=C(C(N)=O)N1
[1]
  GI50: > 100 µM (inactive)
[2]
  GI50: > 100 µM (inactive)
[3]
  GI50: > 100 µM (inactive)
[4]
  GI50: > 100 µM (inactive)
[5]
  GI50: > 100 µM (inactive)
[6]
  GI50: > 100 µM (inactive)
[7]
  GI50: > 100 µM (inactive)
[8]
  GI50: > 100 µM (inactive)
[9]
  GI50: > 100 µM (inactive)
[10]
  GI50: > 100 µM (inactive)
[11]
  GI50: > 100 µM (inactive)
[12]
  GI50: > 100 µM (inactive)
[13]
  GI50: > 100 µM (inactive)
[14]
  GI50: > 100 µM (inactive)
[15]
  GI50: > 100 µM (inactive)
[16]
  GI50: > 100 µM (inactive)
[17]
  GI50: > 100 µM (inactive)
[18]
  GI50: > 100 µM (inactive)
[19]
  GI50: > 100 µM (inactive)
[20]
  GI50: > 100 µM (inactive)

## CN1C(=O)CC2(C)c3cc(O)ccc3N(C)C12 (stereo not given)
[1]
  GI50: 17.6 µM (inactive)
[2]
  GI50: 18.6 µM (inactive)
[3]
  GI50: 29.4 µM (inactive)
[4]
  GI50: 31 µM (inactive)
[5]
  GI50: > 40.4 µM (inactive)
[6]
  GI50: 27 µM (inactive)
[7]
  GI50: 30.8 µM (inactive)
[8]
  GI50: 41.5 µM (inactive)
[9]
  GI50: 19.6 µM (inactive)
[10]
  GI50: 30.5 µM (inactive)
[11]
  GI50: 29.8 µM (inactive)
[12]
  GI50: 19.5 µM (inactive)
[13]
  GI50: 36.8 µM (inactive)
[14]
  GI50: 18.5 µM (inactive)
[15]
  GI50: > 90.4 µM (inactive)
[16]
  GI50: 39.4 µM (inactive)
[17]
  GI50: 41 µM (inactive)
[18]
  GI50: > 100 µM (inactive)
[19]
  GI50: > 48.9 µM (inactive)
[20]
  GI50: 23.8 µM (inactive)

## Cc1c2ccnc(C(=O)NCCN(C)C)c2cc2c3cc(O)ccc3n(C)c12
[1]
  GI50: 0.286 µM (active)
[2]
  GI50: 0.082 µM (active)
[3]
  GI50: 0.29 µM (active)
[4]
  GI50: 0.0927 µM (active)
[5]
  GI50: 0.0649 µM (active)
[6]
  GI50: 0.0676 µM (active)
[7]
  GI50: 0.1 µM (active)
[8]
  GI50: 0.115 µM (active)
[9]
  GI50: 0.357 µM (active)
[10]
  GI50: 0.479 µM (active)
[11]
  GI50: 0.0671 µM (active)
[12]
  GI50: 0.314 µM (active)
[13]
  GI50: 0.268 µM (active)
[14]
  GI50: 0.123 µM (active)
[15]
  GI50: 2 µM (inactive)
[16]
  GI50: 0.766 µM (active)
[17]
  GI50: 0.0368 µM (active)
[18]
  GI50: 0.573 µM (active)
[19]
  GI50: 0.204 µM (active)
[20]
  GI50: < 0.01 µM (active)
